The values that follow come from PubChem BioAssay (NCI).

The structures appear in SMILES notation. “And” between values parts separate entries of the source, which are not always exact repeats. Equal entries are not always repeated.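 A five-concentration, 48-hour dose response in 96-well plates underlies each endpoint, interpolated linearly between surrounding concentrations. At the GI50, growth is halved. TGI is the concentration that stops growth completely.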

Among the test systems are COLO 205 colon; HS 578T breast; KM12 colon; M14 melanoma; MCF7 breast; RPMI-8226 leukemia; SF-539 CNS; SK-OV-3 ovarian; SN12C renal; UACC-257 melanoma.
Test in all cases: growth of human tumour cells (NCI), 48 h

For the compound `NC(CSC(c1ccccc1)(c1ccccc1)c1ccc(Cl)cc1)C(=O)O` (stereo not drawn), the GI50 in the assay with COLO 205 colon was 256 nM; with HS 578T breast it was 0.114 µM; with KM12 colon, 322 nM; in the assay on M14 melanoma, 32.2 nM; with MCF7 breast, 64.7 nM; with RPMI-8226 leukemia it was 143 nM. Further, the GI50 in the assay with SF-539 CNS is 148 nM; in the assay on SK-OV-3 ovarian, 0.158 µM; with SN12C renal it was 0.54 µM; in the assay on UACC-257 melanoma, 3.87 µM. The TGI in the assay on COLO 205 colon came out at 0.768 µM; with HS 578T breast, 3.83 µM; in the assay with KM12 colon it was 15.1 µM; with M14 melanoma it was 0.132 µM; in the assay with MCF7 breast it was 18.9 µM; in the assay with RPMI-8226 leukemia, 21.5 µM. Besides, the TGI with SF-539 CNS is 2.87 µM; in the assay with SK-OV-3 ovarian, 21.7 µM; in the assay with SN12C renal, more than 57.8 µM; with UACC-257 melanoma, more than 78.7 µM.
For the compound `CC(C)C1OC(=O)C=C1Sc1ccccc1` (stereo not drawn), the TGI in the assay with COLO 205 colon, in the assay with HS 578T breast, in the assay on KM12 colon, in the assay on M14 melanoma, with MCF7 breast and in the assay with RPMI-8226 leukemia was more than 100 µM each time. Also, the TGI in the assay with SF-539 CNS, in the assay on SK-OV-3 ovarian, with SN12C renal and with UACC-257 melanoma was more than 100 µM throughout.
Consider `COc1cc(NCCCCN=C(N)NC(N)=NC(C)C)c2ncccc2c1`, for which the GI50 in the assay with COLO 205 colon was 987 nM; in the assay with HS 578T breast, 5.51 µM; in the assay on KM12 colon, 1480 nM; in the assay with M14 melanoma it was 14600 nM; in the assay on MCF7 breast, 51.6 nM; in the assay with RPMI-8226 leukemia, 1510 nM. Besides, the GI50 in the assay on SF-539 CNS was 8140 nM; in the assay with SK-OV-3 ovarian it was 34.4 µM; with SN12C renal, 5.21 µM; with UACC-257 melanoma, 3.26 µM. The TGI with COLO 205 colon was 4.46 µM; with HS 578T breast, 27.1 µM; in the assay with KM12 colon, 11.8 µM; with M14 melanoma, 38.3 µM; in the assay on MCF7 breast it was 0.327 µM; with RPMI-8226 leukemia, 11 µM. The TGI in the assay with SF-539 CNS is 22.2 µM; in the assay with SK-OV-3 ovarian it was more than 100 µM; with SN12C renal, 28.5 µM; with UACC-257 melanoma it was 10.5 µM.
Take `CCOC(=O)c1sc2nc3sc(N=Nc4ccc(Cl)cc4)c(O)n3c(=S)c2c1C`: the GI50 in the assay with COLO 205 colon was 17700 nM; in the assay on HS 578T breast it was 23.8 µM; in the assay with KM12 colon it was 31200 nM; in the assay with M14 melanoma, 33200 nM; with MCF7 breast, 21400 nM; in the assay on RPMI-8226 leukemia, 21400 nM. Also, the GI50 in the assay with SF-539 CNS was 25100 nM; with SK-OV-3 ovarian, 31 µM; in the assay on SN12C renal, 15.5 µM; in the assay on UACC-257 melanoma, 23.4 µM. The TGI in the assay on COLO 205 colon is more than 100 µM; with HS 578T breast it was 68.4 µM; in the assay on KM12 colon, more than 100 µM; in the assay on M14 melanoma, more than 100 µM; in the assay on MCF7 breast it was more than 100 µM; with RPMI-8226 leukemia, more than 100 µM. Moreover, the TGI in the assay with SF-539 CNS was 50.5 µM; with SK-OV-3 ovarian, more than 100 µM; in the assay on SN12C renal, 46.5 µM; in the assay on UACC-257 melanoma, 60.6 µM.
As for `CC(=O)N1CC(Nc2ccc(OC(F)(F)F)cc2)=CC1=O`, the GI50 in the assay on COLO 205 colon is 1210 nM; in the assay with HS 578T breast, 3.11 µM; with KM12 colon, 562 nM; with M14 melanoma, 535 nM; with MCF7 breast, 436 nM; in the assay on RPMI-8226 leukemia it was 2670 nM. Further, the GI50 in the assay with SF-539 CNS is 1310 nM; in the assay on SK-OV-3 ovarian, 3.53 µM; in the assay on SN12C renal, 7.95 µM; in the assay with UACC-257 melanoma, more than 100 µM. Moreover, the TGI in the assay with COLO 205 colon is 4.69 µM; in the assay on HS 578T breast, more than 100 µM; in the assay on KM12 colon, 25.1 µM; with M14 melanoma, 6.71 µM; with MCF7 breast, more than 100 µM; with RPMI-8226 leukemia it was more than 100 µM. The TGI in the assay on SF-539 CNS is 9.01 µM; in the assay with SK-OV-3 ovarian, more than 100 µM; with SN12C renal, more than 100 µM; with UACC-257 melanoma, more than 100 µM.
As for `COc1ccc(/C(Cl)=C(\C=O)c2ccc([N+](=O)[O-])cc2)cc1OC`, the TGI is more than 58.3 µM in the assay on COLO 205 colon; more than 100 µM in the assay on HS 578T breast; 94.4 µM in the assay on KM12 colon; 43.5 µM with M14 melanoma; 36.8 µM in the assay with MCF7 breast; more than 25.8 µM in the assay with RPMI-8226 leukemia. Also, the TGI in the assay with SF-539 CNS came to 30.8 µM; with SK-OV-3 ovarian, 60 µM; in the assay with SN12C renal, 22.1 µM; in the assay with UACC-257 melanoma, 29.7 µM.
With `CCCCCC(O)C1C(=O)OC(C)C(O)/C=C/C=C/C=C/C=C\C=C(\C)C(O)CC(O)CC(O)CC(O)CC(O)CC(O)CC1O` (stereo not drawn), the GI50 in the assay on COLO 205 colon is more than 100000 nM; with HS 578T breast, more than 100 µM; with KM12 colon, more than 100000 nM; in the assay with M14 melanoma, more than 100000 nM; in the assay with MCF7 breast, more than 100000 nM; in the assay on RPMI-8226 leukemia, more than 100000 nM. The GI50 with SF-539 CNS was more than 100000 nM; in the assay with SK-OV-3 ovarian it was more than 100 µM; in the assay with SN12C renal it was more than 100 µM; with UACC-257 melanoma, more than 100 µM. For the same compound, the TGI with COLO 205 colon, with HS 578T breast, with KM12 colon, in the assay with M14 melanoma, in the assay on MCF7 breast and in the assay with RPMI-8226 leukemia was more than 100 µM throughout. For the same compound, the TGI was more than 100 µM in the assay on SF-539 CNS; more than 100 µM with SK-OV-3 ovarian; more than 100 µM in the assay with SN12C renal; 50 µM and > 100 µM with UACC-257 melanoma.
In the case of `CC1/C=C/C=C/C=C/C=C/C=C/C=C/C=C/C(O[C@@H]2O[C@H](C)[C@H](O)[C@@H](O)[C@@H]2N)CC(O)C(C(=O)O)C(O)CC(=O)CC(O)CC(O)CC(O)CC(=O)CCCC(=O)CC(=O)OC1C(C)CC(C)C(O)CC(=O)c1ccc(N)cc1` (stereo partly drawn), the GI50 in the assay with COLO 205 colon was 559 nM; in the assay with HS 578T breast, 0.0765 µM and 0.329 µM; in the assay with KM12 colon it was 69.4 nM and 574 nM; with M14 melanoma, 57.4 nM and 197 nM; in the assay with MCF7 breast, 79.7 nM and 422 nM; in the assay with RPMI-8226 leukemia it was 74.8 nM and 238 nM. Moreover, the GI50 is 60.4 nM and 481 nM in the assay on SF-539 CNS; 0.0674 µM and 0.298 µM with SK-OV-3 ovarian; 0.0586 µM and 0.174 µM with SN12C renal; 0.0544 µM and 0.233 µM with UACC-257 melanoma. Also, the TGI is 1.72 µM in the assay on COLO 205 colon; 0.211 µM and 1.58 µM in the assay with HS 578T breast; 0.11 µM and 0.416 µM with M14 melanoma; 0.173 µM and 1.59 µM in the assay on MCF7 breast; 0.171 µM and 0.682 µM in the assay on RPMI-8226 leukemia; 0.119 µM and 0.908 µM in the assay with SK-OV-3 ovarian. In addition, the TGI was 0.114 µM and 0.317 µM in the assay with SN12C renal; 0.101 µM and 0.612 µM with UACC-257 melanoma.
